Measured values from patent US20050234065A1, “Dipeptidyl peptidase-IV inhibitors” (Pfizer Inc, priority 2004, published 2005).
Where a name gives a salt, the structure may show the parent alone.

melting point: 133.4 to 134.7 °C
Compound: Nc1nccnc1C(=O)N[C@H]1CC[C@H]([C@H](N)C(=O)N2CCSC2)CC1 (as salt: hydrochloride) [Example 35, (S)-3-amino-pyrazine-2-carboxylic acid [trans-4-(1-amino-2-oxo-2-thiazolidin-3-yl-ethyl)-cyclohexyl]-amide]
